Test results reported in patent US20220162191A1, “SMALL MOLECULE MODULATORS OF IL-17” (LEO PHARMA A/S, priority 2019, published 2022).

These compounds were tested against T1, human IL-17AA (Homo sapiens, UniProt Q16552) (assay: IL-8 release assay in human epithelial keratinocytes adult (HEKa)). Conditions: 3 ng/ml human IL-17AA + 10 ng/ml human TNFalpha, 68-72 h, IL-8 by HTRF, read-out: Rel EC50 L-8 release assay.
T1 construct: host or cells: HEK (human embryonic kidney) cells
T1 sequence (Q16552 24-155) 1: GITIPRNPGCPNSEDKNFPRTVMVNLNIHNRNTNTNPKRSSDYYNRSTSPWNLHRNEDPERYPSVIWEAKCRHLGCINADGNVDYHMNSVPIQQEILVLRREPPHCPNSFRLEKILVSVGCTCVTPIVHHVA
T1 sequence (Q16552 24-155) 2: T1 sequence (Q16552 24-155) 1
Format: cell-based
In short: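 IL-8 secretion, quantified by HTRF (665/620 nm) as percent of controls, served as the readout after 68–72 h culture of HEKa cells with compound plus IL-17AA (3 ng/ml final) and TNF-alpha (10 ng/ml final). Four-parameter logistic curves gave relative IC50 and Emax.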

Compound | EC50
Cc1nocc1C(=O)N[C@@H](Cc1cc(-c2ccnc(C(C)(C)C)c2)ccc1Cl)C(=O)Nc1ccc(-c2nncn2C)cc1 [Example 128, N-[(1S)-1-[[5-(2-tert-butyl-4-pyridyl)-2-chloro-phenyl]methyl]-2-[4-(4-methyl-1,2,4-triazol-3-yl)anilino]-2-oxo-ethyl]-3-methyl-isoxazole-4-carboxamide] | 100 to 1000 nM
Cn1cncc1-c1ccc(NC(=O)[C@H](Cc2cc(-c3ccnc(C(O)C4CC4)c3)ccc2Cl)NC(=O)c2ccnn2C)cc1 (stereo partly drawn) [Example 140, N-[(1S)-1-[[2-chloro-5-[2-[cyclopropyl(hydroxy)methyl]-4-pyridyl]phenyl]methyl]-2-[4-(3-methylimidazol-4-yl)anilino]-2-oxo-ethyl]-2-methyl-pyrazole-3-carboxamide] | 100 to 1000 nM
Cc1cnn(C)c1-c1ccc(NC(=O)[C@H](Cc2cc(-c3ccc(=O)n(C(C)C)c3)ccc2Cl)NC(=O)C2(F)CC2)cc1 [Example 119, N-[(1S)-1-[[2-chloro-5-(1-isopropyl-6-oxo-3-pyridyl)phenyl]methyl]-2-[4-(2,4-dimethylpyrazol-3-yl)anilino]-2-oxo-ethyl]-1-fluoro-cyclopropanecarboxamide] | 100 to 1000 nM
CC(C)n1cc(-c2cccc(C(c3ccccc3)C(NC(=O)c3ccnn3C)C(=O)Nc3ccc(-c4cncn4C)cc3)c2)ccc1=O (single isomer, unassigned; diastereomer 4) [Example 234, N-[1-[[3-(1-isopropyl-6-oxo-3-pyridyl)phenyl]-phenyl-methyl]-2-[4-(3-methylimidazol-4-yl)anilino]-2-oxo-ethyl]-2-methyl-pyrazole-3-carboxamide (Diastereomer 4)] | 100 to 1000 nM
Cc1n[nH]c(C)c1-c1ccc(NC(=O)[C@H](Cc2cc(-c3ccnc(N4CCC5(CC4)COC5)n3)ccc2Cl)NC(=O)C2(F)CC2)cc1 [Example 317, N-[(1S)-1-[[2-chloro-5-[2-(2-oxa-7-azaspiro[3.5]nonan-7-yl)pyrimidin-4-yl]phenyl]methyl]-2-[4-(3,5-dimethyl-1H-pyrazol-4-yl)anilino]-2-oxo-ethyl]-1-fluoro-cyclopropanecarboxamide] | < 100 nM
Cn1cnnc1-c1ccc(NC(=O)C(Cc2cc(-c3ccc(O)c(C(=O)N4CCNCC4)c3)ccc2Cl)NC(=O)c2ccnn2C)cc1 (stereo not drawn) [Example 173, N-[1-[[2-chloro-5-[4-hydroxy-3-(piperazine-1-carbonyl)phenyl]phenyl]methyl]-2-[4-(4-methyl-1,2,4-triazol-3-yl)anilino]-2-oxo-ethyl]-2-methyl-pyrazole-3-carboxamide] | > 1000 nM
Cn1cncc1-c1ccc(NC(=O)C(Cc2cc(-c3ccnc(OC4CCC4)c3)ccc2Cl)NC(=O)c2ccnn2C)cc1 (stereo not drawn) [Example 158, N-[1-[[2-chloro-5-[2-(cyclobutoxy)-4-pyridyl]phenyl]methyl]-2-[4-(3-methylimidazol-4-yl)anilino]-2-oxo-ethyl]-2-methyl-pyrazole-3-carboxamide] | 100 to 1000 nM
N-[1-[[2-chloro-5-(1-(l-6-oxo-3- pyridyl)phenyl]methyl]-2-[4-(3-chloro- 1H-pyrazol-4-yl)anilino]-2-oxo-ethyl]-2- methyl-pyrazole-3-carboxamide [Example 180] | 100 to 1000 nM
Cc1n[nH]c(C)c1-c1ccc(NC(=O)[C@@H](NC(=O)C2(F)CC2)[C@@H]2CCc3ccc(-c4ccnc(N5C[C@@H]6C[C@H]5CO6)n4)cc32)cc1 [Example 367, N-[(1S)-2-[4-(3,5-dimethyl-1H-pyrazol-4-yl)anilino]-1-[(1R)-6-[2-[(1S,4S)-2-oxa-5-azabicyclo[2.2.1]heptan-5-yl]pyrimidin-4-yl]indan-1-yl]-2-oxo-ethyl]-1-fluoro-cyclopropanecarboxamide] | < 100 nM
CC(C)n1cc(-c2ccc3c(c2)[C@H]([C@H](NC(=O)c2ccnn2C)C(=O)Nc2ccc(-c4cncn4C)cc2)CCC3)ccc1=O [Example 44, N-[(1S)-1-[(1R)-7-(1-isopropyl-6-oxo-3-pyridyl)tetralin-1-yl]-2-[4-(3-methylimidazol-4-yl)anilino]-2-oxo-ethyl]-2-methyl-pyrazole-3-carboxamide] | 100 to 1000 nM
CC(C)n1cc(-c2ccc(Cl)c(CC(NC(=O)OC(C)(C)C)C(=O)Nc3ccc(-c4cnn[nH]4)cc3)c2)ccc1=O (stereo not drawn) [Example 76, tert-butyl N-[1-[[2-chloro-5-(1-isopropyl-6-oxo-3-pyridyl)phenyl]methyl]-2-oxo-2-[4-(1H-triazol-5-yl)anilino]ethyl]carbamate] | > 1000 nM
CNC1CN(c2cc(-c3ccc(Cl)c(CC(NC(=O)c4ccnn4C)C(=O)Nc4ccc(-c5cncn5C)cc4)c3)ccn2)C1 (stereo not drawn) [Example 196, N-[1-[[2-chloro-5-[2-[3-(methylamino)azetidin-1-yl]-4-pyridyl]phenyl]methyl]-2-[4-(3-methylimidazol-4-yl)anilino]-2-oxo-ethyl]-2-methyl-pyrazole-3-carboxamide] | 100 to 1000 nM
Cn1cncc1-c1ccc(NC(=O)C(Cc2cc(-c3ccnc(N4CC[C@H](O)C4)c3)ccc2Cl)NC(=O)c2ccnn2C)cc1 (stereo partly drawn) [Example 191, N-[1-[[2-chloro-5-[2-[(3S)-3-hydroxypyrrolidin-1-yl]-4-pyridyl]phenyl]methyl]-2-[4-(3-methylimidazol-4-yl)anilino]-2-oxo-ethyl]-2-methyl-pyrazole-3-carboxamide] | 100 to 1000 nM
CC(C)Cn1cc(-c2ccc(Cl)c(C[C@H](NC(=O)OC3CC3)C(=O)Nc3ccc(-c4cncn4C)cc3)c2)nn1 [Example 214, cyclopropyl N-[(1S)-1-[[2-chloro-5-(1-isobutyltriazol-4-yl)phenyl]methyl]-2-[4-(3-methylimidazol-4-yl)anilino]-2-oxo-ethyl]carbamate] | > 1000 nM
Cc1ncn(C)c1-c1ccc(NC(=O)[C@H](Cc2cc(-c3cccc(C(C)(C)O)c3)ccc2Cl)NC(=O)c2ccnn2C)cc1 [Example 181, N-[(1S)-[[2-chloro-5-[3-(1-hydroxy-1-methyl-ethyl)phenyl]phenyl]methyl]-2-[4-(3,5-dimethylimidazol-4-yl)anilino]-2-oxo-ethyl]-2-methyl-pyrazole-3-carboxamide] | < 100 nM
Cc1n[nH]c(C)c1-c1ccc(NC(=O)[C@H](Cc2cc(-c3ccnn3C3CCC3)ccc2Cl)NC(=O)C2(F)CC2)cc1 [Example 226, N-[(1S)-1-[[2-chloro-5-(2-cyclobutylpyrazol-3-yl)phenyl]methyl]-2-[4-(3,5-dimethyl-1H-pyrazol-4-yl)anilino]-2-oxo-ethyl]-1-fluoro-cyclopropanecarboxamide] | 100 to 1000 nM

The remaining lines, values ahead:

EC50 | Compound
100 to 1000 nM | Cn1cnnc1-c1ccc(NC(=O)C(Cc2cc(-c3ccc(O)c(CN4CCC4)c3)ccc2Cl)NC(=O)c2ccnn2C)cc1 (stereo not drawn) [Example 168, N-[1-[[5-[3-(azetidin-1-ylmethyl)-4-hydroxy-phenyl]-2-chloro-phenyl]methyl]-2-[4-(4-methyl-1,2,4-triazol-3-yl)anilino]-2-oxo-ethyl]-2-methyl-pyrazole-3-carboxamide]
100 to 1000 nM | CC(c1cc(-c2ccc(=O)n(C(C)C)c2)ccc1Cl)[C@H](NC(=O)OC1CC1)C(=O)Nc1ccc(-c2cncn2C)cc1 (stereo partly drawn) [Example 53, cyclopropyl N-[(1S)-2-[2-chloro-5-(1-isopropyl-6-oxo-3-pyridyl)phenyl]-1-[[4-(3-methylimidazol-4-yl)phenyl]carbamoyl]propyl] carbamate]
100 to 1000 nM | CC(C)c1cc(-c2ccc(Cl)c(CC(NC(=O)c3ccnn3C)C(=O)Nc3ccc(-c4nncn4C4CC4)cc3)c2)ccn1 (stereo not drawn) [Example 74, N-[1-[[2-chloro-5-(2-isopropyl-4-pyridyl)phenyl]methyl]-2-[4-(4-cyclopropyl-1,2,4-triazol-3-yl)anilino]-2-oxo-ethyl]-2-methyl-pyrazole-3-carboxamide]
> 1000 nM | Cc1cnn(C)c1-c1ccc(NC(=O)[C@H](Cc2cc(-c3ccc(=O)n(C(C)C)c3)ccc2Cl)NC(=O)c2cnco2)cc1 [Example 321, N-[(1S)-1-[[2-chloro-5-(1-isopropyl-6-oxo-3-pyridyl)phenyl]methyl]-2-[4-(2,4-dimethylpyrazol-3-yl)anilino]-2-oxo-ethyl]oxazole-5-carboxamide]
100 to 1000 nM | CC(C)n1cc(-c2ccc(Cl)c(C[C@H](NC(=O)C3(F)CCC3)C(=O)Nc3ccc(-c4cncn4C)cc3)c2)ccc1=O [Example 147, N-[(1S)-1-[[2-chloro-5-(1-isopropyl-6-oxo-3-pyridyl)phenyl]methyl]-2-[4-(3-methylimidazol-4-yl)anilino]-2-oxo-ethyl]-1-fluoro-cyclobutanecarboxamide]
< 100 nM | Cc1n[nH]c(C)c1-c1ccc(NC(=O)[C@@H](NC(=O)C2(F)CC2)[C@@H]2CCCc3ccc(-c4ccnc(N5C[C@@H]6C[C@H]5CO6)c4)cc32)cc1 [Example 29, N-[(1S)-2-[4-(3,5-dimethyl-1H-pyrazol-4-yl)anilino]-1-[(1R)-7-[2-[(1S,4S)-2-oxa-5-azabicyclo[2.2.1]heptan-5-yl]-4-pyridyl]tetralin-1-yl]-2-oxo-ethyl]-1-fluoro-cyclopropanecarboxamide]
< 100 nM | CC(C)n1cc(-c2ccc3c(c2)[C@H]([C@H](NC(=O)c2ccnn2C)C(=O)Nc2ccc(-c4cncn4C)c(O)c2)CCC3)ccc1=O [Example 49, N-[(1S)-2-[3-hydroxy-4-(3-methylimidazol-4-yl)anilino]-1-[(1R)-7-(1-isopropyl-6-oxo-3-pyridyl)tetralin-1-yl]-2-oxo-ethyl]-2-methyl-pyrazole-3-carboxamide]
> 1000 nM | Cc1cnn(C)c1-c1ccc(NC(=O)[C@H](Cc2cc(-c3ccc(=O)n(C(C)C)c3)ccc2Cl)NC(=O)C2CCC2)cc1 [Example 325, N-[(1S)-1-[[2-chloro-5-(1-isopropyl-6-oxo-3-pyridyl)phenyl]methyl]-2-[4-(2,4-dimethylpyrazol-3-yl)anilino]-2-oxo-ethyl]cyclobutanecarboxamide]
